Measured values published in patent publication US12077503B2, “Substituted cyclic amides and their use as herbicides” (FMC CORPORATION, priority 2015, dated 2024).

Tests used:
Assay type in all cases: in vivo
Kochia (Kochia scoparia) = test: Test A preemergence; details: Bassia scoparia, pre-emergence, 240 h, preemergence, 0 to 100 scale where 0 is no effect and 100 is complete control, read-out: Kochia plant response rating
In short: (§1)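 Preemergence directed soil spray on seeded pots, or postemergence application to plants 2–10 cm, one- to two-leaf. Solvent mixture non-phytotoxic, with surfactant. Scored ~10 d later, visually, 0–100 vs untreated.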

[1] = tested on: barnyardgrass (Echinochloa crus-galli); test: Test A preemergence; details: Echinochloa crus-galli, pre-emergence, 240 h, preemergence, 0 to 100 scale where 0 is no effect and 100 is complete control, read-out: Barnyardgrass plant response rating
In short: as §1

[2] = tested on: giant foxtail (Setaria faberii); test: Test A preemergence; details: Setaria faberi, pre-emergence, 240 h, preemergence, 0 to 100 scale where 0 is no effect and 100 is complete control, read-out: Foxtail, Giant plant response rating
In short: as §1

[3] = tested on: pigweed (Amaranthus retroflexus); test: Test A preemergence; details: Amaranthus retroflexus, pre-emergence, 240 h, preemergence, 0 to 100 scale where 0 is no effect and 100 is complete control, read-out: Pigweed plant response rating
[4] = tested on: ragweed (common ragweed, Ambrosia elatior); test: Test A preemergence; details: Ambrosia artemisiifolia, pre-emergence, 240 h, preemergence, 0 to 100 scale where 0 is no effect and 100 is complete control, read-out: Ragweed plant response rating
In short: as §1

[5] = tested on: ryegrass, Italian (Italian ryegrass, Lolium multiflorum); test: Test A preemergence; details: Lolium multiflorum, pre-emergence, 240 h, preemergence, 0 to 100 scale where 0 is no effect and 100 is complete control, read-out: Ryegrass, Italian plant response rating
In short: as §1

[6] = tested on: Galium (catchweed bedstraw, Galium aparine); test: Test A postemergence; details: Galium, post-emergence, 240 h, postemergence
In short: as §1

[7] = tested on: barnyardgrass (Echinochloa crus-galli); test: Test A postemergence; details: Echinochloa crus-galli, post-emergence, 240 h, postemergence
In short: as §1

[8] = tested on: blackgrass (Alopecurus myosuroides); test: Test A postemergence; details: Alopecurus myosuroides, post-emergence, 240 h, postemergence
In short: as §1

corn (Zea mays) = test: Test A postemergence; details: Zea mays, post-emergence, 240 h, postemergence
In short: as §1

[9] = tested on: giant foxtail (Setaria faberii); test: Test A postemergence; details: Setaria faberi, post-emergence, 240 h, postemergence
In short: as §1

[10] = tested on: pigweed (Amaranthus retroflexus); test: Test A postemergence; details: Amaranthus retroflexus, post-emergence, 240 h, postemergence
In short: as §1

[11] = tested on: ragweed (common ragweed, Ambrosia elatior); test: Test A postemergence; details: Ambrosia artemisiifolia, post-emergence, 240 h, postemergence
In short: as §1

[12] = tested on: ryegrass, Italian (Italian ryegrass, Lolium multiflorum); test: Test A postemergence; details: Lolium multiflorum, post-emergence, 240 h, postemergence
In short: as §1

[13] = tested on: wheat (Triticum aestivum); test: Test A postemergence; details: Triticum aestivum, post-emergence, 240 h, postemergence
In short: as §1

[14] = 125 g ai/ha, visual injury rating, approximately 10 d

CN1C[C@H](c2ccc(C#N)cc2)[C@@H](C(=O)Nc2ccccc2F)C1=O [Compound 1207]
40%: pest or weed control at 500 g/ha ([6]; 500 g ai/ha, 0 to 100 scale, 0 is no effect, 100 is complete control, read-out: Galium plant response rating)
50%: pest or weed control at 125 g/ha ([9]; 125 g ai/ha, visual injury vs untreated controls after approx. 10 d, 0 = no effect, 100 = complete control, read-out: Foxtail, Giant plant response rating (0 to 100 scale))
100%: pest or weed control at 500 g/ha ([1]; 500 g ai/ha) | pest or weed control at 500 g/ha ([2]; 500 g ai/ha) | pest or weed control at 500 g/ha ([7]; 500 g ai/ha, 0 to 100 scale, 0 is no effect, 100 is complete control, read-out: Barnyardgrass plant response rating)
0%: pest or weed control at 125 g/ha [3, 14] | pest or weed control at 125 g/ha [5, 14] | pest or weed control at 125 g/ha ([8]; 125 g ai/ha, visual injury vs untreated controls after approx. 10 d, 0 = no effect, 100 = complete control, read-out: Blackgrass plant response rating (0 to 100 scale)) | pest or weed control at 500 g/ha ([8]; 500 g ai/ha, 0 to 100 scale, 0 is no effect, 100 is complete control, read-out: Blackgrass plant response rating) | plant injury at 125 g/ha (corn (Zea mays); 125 g ai/ha, visual injury vs untreated controls after approx. 10 d, 0 = no effect, 100 = complete control, read-out: Corn plant response rating (0 to 100 scale)) | plant injury at 500 g/ha (corn (Zea mays); 500 g ai/ha, 0 to 100 scale, 0 is no effect, 100 is complete control, read-out: Corn plant response rating) | pest or weed control at 125 g/ha ([10]; 125 g ai/ha, visual injury vs untreated controls after approx. 10 d, 0 = no effect, 100 = complete control, read-out: Pigweed plant response rating (0 to 100 scale)) | pest or weed control at 125 g/ha ([11]; 125 g ai/ha, visual injury vs untreated controls after approx. 10 d, 0 = no effect, 100 = complete control, read-out: Ragweed plant response rating (0 to 100 scale)) | pest or weed control at 125 g/ha ([12]; 125 g ai/ha, visual injury vs untreated controls after approx. 10 d, 0 = no effect, 100 = complete control, read-out: Ryegrass, Italian plant response rating (0 to 100 scale)) | pest or weed control at 500 g/ha ([12]; 500 g ai/ha, 0 to 100 scale, 0 is no effect, 100 is complete control, read-out: Ryegrass, Italian plant response rating) | plant injury at 125 g/ha ([13]; 125 g ai/ha, visual injury vs untreated controls after approx. 10 d, 0 = no effect, 100 = complete control, read-out: Wheat plant response rating (0 to 100 scale)) | plant injury at 500 g/ha ([13]; 500 g ai/ha, 0 to 100 scale, 0 is no effect, 100 is complete control, read-out: Wheat plant response rating)
30%: pest or weed control at 125 g/ha (Kochia (Kochia scoparia); [14]) | pest or weed control at 125 g/ha [4, 14] | pest or weed control at 500 g/ha ([11]; 500 g ai/ha, 0 to 100 scale, 0 is no effect, 100 is complete control, read-out: Ragweed plant response rating)
20%: pest or weed control at 500 g/ha ([5]; 500 g ai/ha) | pest or weed control at 125 g/ha ([6]; 125 g ai/ha, visual injury vs untreated controls after approx. 10 d, 0 = no effect, 100 = complete control, read-out: Galium plant response rating (0 to 100 scale)) | pest or weed control at 500 g/ha ([10]; 500 g ai/ha, 0 to 100 scale, 0 is no effect, 100 is complete control, read-out: Pigweed plant response rating)
60%: pest or weed control at 125 g/ha [1, 14] | pest or weed control at 500 g/ha ([3]; 500 g ai/ha)
70%: pest or weed control at 125 g/ha ([7]; 125 g ai/ha, visual injury vs untreated controls after approx. 10 d, 0 = no effect, 100 = complete control, read-out: Barnyardgrass plant response rating (0 to 100 scale))
90%: pest or weed control at 500 g/ha (Kochia (Kochia scoparia); 500 g ai/ha) | pest or weed control at 500 g/ha ([4]; 500 g ai/ha) | pest or weed control at 500 g/ha ([9]; 500 g ai/ha, 0 to 100 scale, 0 is no effect, 100 is complete control, read-out: Foxtail, Giant plant response rating)
80%: pest or weed control at 125 g/ha [2, 14]
